≈ marks a conversion by molar mass, not a printed value. Entries after “also recorded” stand apart in the source; their conditions may differ.
How the values were obtained:
MV4:11 cancer cells = conditions: cited from earlier work
MV4:11 mouse xenograft = conditions: ip (DDO-2093) and po (DDO-2213) dosing; cited from earlier work
Kinetic solubility assay = format: physicochemical; conditions: phosphate-buffered saline, pH 7.4
[1] = Microsomal intrinsic clearance assay; format: in vitro ADME; conditions: rat, pooled liver microsomes
[2] = Clinical observations during mouse PK studies; format: in vivo; conditions: CD-1 mice; for tolerability / clinical signs: 3 mg/kg iv and 10 mg/kg po
K562 = assay: Cell proliferation assay; format: cell-based; conditions: Homo sapiens, K562, 120 h, read-out: Cell Proliferation Assays GI50 (nM) K562
WDR5 = WDR5 (Homo sapiens, UniProt P61964); assay: TR-FRET competition assay against MLL1-derived 10-mer-Thr-FAM peptide probe; format: binding
MV4:11 = assay: Cell proliferation assay; format: cell-based; conditions: GI50,K562/GI50,MV4:11
[3] = In vivo pharmacokinetic studies; parameters: species or system CD-1 mice; conditions: for AUC(0-inf) / Vd / clearance / bioavailability / Cmax / half-life: male, CD-1, mouse, plasma
mouse models = conditions: cited from earlier work

Structure (SMILES): Cc1c(F)c(N)cc(C(=O)Nc2cc(-n3cc(C(=O)NCCCN4CCOCC4)nn3)ccc2N2CCN(C)CC2)c1Cl [DDO-2093]
- GI50 (MV4:11 cancer cells): ~10 µM
- in vivo tumor growth inhibition (MV4:11 mouse xenograft): marginal in vivo tumor growth inhibition

Structure (SMILES): CCn1cc(-c2cc(Cn3ccnc3)cc3c2CCN([C@@H](C)c2cc(OC)ccn2)C3=O)c(C(F)(F)F)n1 [Compound 38, (S)-7-((1H-Imidazol-1-yl)methyl)-5-(1-ethyl-3-(trifluoromethyl)-1H-pyrazol-4-yl)-2-(1-(4-methoxypyridin-2-yl)ethyl)-3,4-dihydroisoquinolin-1(2H)-one]
- solubility kinetic at 1 h (Kinetic solubility assay): 86 µM (≈ 45.1 µg/mL)
- half-life at 1 μM [1]: 0.367 h
- microsomal CLint at 1 μM [1]: 31 µL/min/mg
- tolerability / clinical signs [2]: behaved normally during the study and showed no adverse effects
- GI50 (K562): 1900 ± 1800 nM
- Ki (WDR5): < 20 pM
- Selectivity K562/MV4:11 (MV4:11): 200
- AUC(0-inf) ([3]; iv, 3 mg/kg): 707 ng·h/mL
- Vd ([3]; iv, 3 mg/kg): 2.3 L/kg
- clearance ([3]; iv, 3 mg/kg): 76 mL/min/kg
- bioavailability ([3]; oral, 10 mg/kg): 73%
- AUC(0-inf) ([3]; po, 10 mg/kg): 1710 ng·h/mL
- Cmax ([3]; po, 10 mg/kg): 2010 ng/mL
- half-life ([3]; po, 10 mg/kg): 1.2 h

Structure (SMILES): CCn1cc(-c2cc(Cn3ccnc3C)cc3c2CCN([C@@H](C)c2cc(OC)ccn2)C3=O)c(C(F)(F)F)n1 [Compound 34, (S)-5-(1-Ethyl-3-(trifluoromethyl)-1H-pyrazol-4-yl)-2-(1-(4-methoxypyridin-2-yl)ethyl)-7-((2-methyl-1H-imidazol-1-yl)methyl)-3,4-dihydroisoquinolin-1(2H)-one]
- tolerability / clinical signs [2]: behaved normally during the study and showed no adverse effects
- clearance ([3]; iv, 3 mg/kg): 118 mL/min/kg

Structure (SMILES): COc1cc(CN2CCc3c(cc(Cn4ccnc4C(C)C)cc3-c3cn(C)nc3C(F)(F)F)C2=O)cc(OC)c1 [Compound 22, 2-(3,5-Dimethoxybenzyl)-7-((2-isopropyl-1H-imidazol-1-yl)methyl)-5-(1-methyl-3-(trifluoromethyl)-1H-pyrazol-4-yl)-3,4-dihydroisoquinolin-1(2H)-one]
- GI50 (K562): 16000 ± 3100 nM

Structure (SMILES): COc1cc(CN2CCc3c(cc(Cn4cccn4)cc3-c3cn(C)nc3C(F)(F)F)C2=O)cc(OC)c1 [Compound 17, 7-((1H-Pyrazol-1-yl)methyl)-2-(3,5-dimethoxybenzyl)-5-(1-methyl-3-(trifluoromethyl)-1H-pyrazol-4-yl)-3,4-dihydroisoquinolin-1(2H)-one]
- Selectivity K562/MV4:11 (MV4:11): >1

Structure (SMILES): Cc1ncsc1-c1ccc([C@H](C)NC(=O)[C@@H]2C[C@@H](O)CN2C(=O)[C@@H](NC(=O)CNC(=O)c2ccc(F)c(-c3ccc(N4C[C@@H](C)N(C)[C@@H](C)C4)c(NC(=O)c4c[nH]c(=O)cc4C(F)(F)F)c3)c2)C(C)(C)C)cc1 [MS67]
- in vivo tumor growth inhibition (mouse models): demonstrated in vivo tumor growth inhibition

Structure (SMILES): COc1cc(CN2CCc3c(cc(Cn4ccn(C)c4=N)cc3-c3ccc(F)cc3C)C2=O)cc(OC)c1 [Compound 1]
- acute toxicity signs ([2]; 3 mg/kg iv, 3 mg/kg): signs of severe acute toxicity; also recorded: lethality
- oral exposure ([3]; CD-1 mice, 3 mg/kg po): below the limit of quantitation
- clearance ([3]; iv, 3 mg/kg): 78 mL/min/kg

Structure (SMILES): CCc1nccn1Cc1cc2c(c(-c3cn(C)nc3C(F)(F)F)c1)CCN(Cc1cc(OC)cc(OC)c1)C2=O [Compound 21, 2-(3,5-Dimethoxybenzyl)-7-((2-ethyl-1H-imidazol-1-yl)methyl)-5-(1-methyl-3-(trifluoromethyl)-1H-pyrazol-4-yl)-3,4-dihydroisoquinolin-1(2H)-one]
- Ki (WDR5): 22 ± 1 pM

Structure (SMILES): COc1cc(CN2CCc3c(cc(Cn4cccc4)cc3-c3cn(C)nc3C(F)(F)F)C2=O)cc(OC)c1 [Compound 18, 7-((1H-Pyrrol-1-yl)methyl)-2-(3,5-dimethoxybenzyl)-5-(1-methyl-3-(trifluoromethyl)-1H-pyrazol-4-yl)-3,4-dihydroisoquinolin-1(2H)-one]
- Selectivity K562/MV4:11 (MV4:11): >2

Structure (SMILES): COc1cc(CN2CCc3c(cc(Cn4ccnc4C(F)F)cc3-c3cn(C)nc3C(F)(F)F)C2=O)cc(OC)c1 [Compound 24, 7-((2-(Difluoromethyl)-1H-imidazol-1-yl)methyl)-2-(3,5-dimethoxybenzyl)-5-(1-methyl-3-(trifluoromethyl)-1H-pyrazol-4-yl)-3,4-dihydroisoquinolin-1(2H)-one]
- Selectivity K562/MV4:11 (MV4:11): >3

Structure (SMILES): CCn1cc(-c2cc(Cn3ccnc3C)cc3c2CCN([C@H](c2cc(OC)ccn2)C2CC2)C3=O)c(C(F)(F)F)n1 [Compound 36, (S)-2-(Cyclopropyl(4-methoxypyridin-2-yl)methyl)-5-(1-ethyl-3-(trifluoromethyl)-1H-pyrazol-4-yl)-7-((2-methyl-1H-imidazol-1-yl)methyl)-3,4-dihydroisoquinolin-1(2H)-one]
- solubility kinetic at 1 h (Kinetic solubility assay): 65 µM (≈ 36.7 µg/mL)
- tolerability / clinical signs [2]: behaved normally during the study and showed no adverse effects
- GI50 (K562): 2600 ± 1500 nM
- Ki (WDR5): < 20 pM
- AUC(0-inf) ([3]; iv, 3 mg/kg): 1240 ng·h/mL
- Vd ([3]; iv, 3 mg/kg): 1.6 L/kg
- clearance ([3]; iv, 3 mg/kg): 41 mL/min/kg
- AUC(0-inf) ([3]; po, 10 mg/kg): 508 ng·h/mL
- Cmax ([3]; po, 10 mg/kg): 652 ng/mL
- bioavailability ([3]; po, 10 mg/kg): 12%
- half-life ([3]; po, 10 mg/kg): 1.4 h

Structure (SMILES): CCn1cc(-c2cc(Cn3ccnc3C)cc3c2CCN([C@H](c2cc(C)ccn2)C2CC2)C3=O)c(C(F)(F)F)n1 [Compound 37, (S)-2-(Cyclopropyl(4-methylpyridin-2-yl)methyl)-5-(1-ethyl-3-(trifluoromethyl)-1H-pyrazol-4-yl)-7-((2-methyl-1H-imidazol-1-yl)methyl)-3,4-dihydroisoquinolin-1(2H)-one]
- tolerability / clinical signs [2]: behaved normally during the study and showed no adverse effects
- clearance ([3]; iv, 3 mg/kg): 25 mL/min/kg

Structure (SMILES): CN1CCN(c2cc(F)c(-c3ccc(NC(=O)N(C)C)cc3)cc2Nc2ncnc(Cl)c2N)CC1 [DDO-2213]
- GI50 (MV4:11 cancer cells): ~10 µM
- in vivo tumor growth inhibition (MV4:11 mouse xenograft): marginal in vivo tumor growth inhibition

Structure (SMILES): CCn1cc(-c2cc(Cn3ccnc3)cc3c2CCN([C@H](c2cc(C)ccn2)C2CC2)C3=O)c(C(F)(F)F)n1 [Compound 41, (S)-7-((1H-Imidazol-1-yl)methyl)-2-(cyclopropyl(4-methylpyridin-2-yl)methyl)-5-(1-ethyl-3-(trifluoromethyl)-1H-pyrazol-4-yl)-3,4-dihydroisoquinolin-1(2H)-one]
- solubility kinetic at 1 h (Kinetic solubility assay): 60 µM (≈ 32.1 µg/mL)
- tolerability / clinical signs [2]: behaved normally during the study and showed no adverse effects
- GI50 (K562): 3700 ± 3100 nM
- Ki (WDR5): < 20 pM
- Selectivity K562/MV4:11 (MV4:11): 290
- AUC(0-inf) ([3]; iv, 3 mg/kg): 1950 ng·h/mL
- Vd ([3]; iv, 3 mg/kg): 1.6 L/kg
- clearance ([3]; iv, 3 mg/kg): 26 mL/min/kg
- bioavailability ([3]; oral, 10 mg/kg): 61%
- AUC(0-inf) ([3]; po, 10 mg/kg): 3980 ng·h/mL
- Cmax ([3]; po, 10 mg/kg): 2080 ng/mL
- half-life ([3]; po, 10 mg/kg): 1.3 h

Structure (SMILES): COc1cc(CN2CCc3c(cc(Cn4cnnc4)cc3-c3cn(C)nc3C(F)(F)F)C2=O)cc(OC)c1 [Compound 19, 7-((4H-1,2,4-Triazol-4-yl)methyl)-2-(3,5-dimethoxybenzyl)-5-(1-methyl-3-(trifluoromethyl)-1H-pyrazol-4-yl)-3,4-dihydroisoquinolin-1(2H)-one]
- Selectivity K562/MV4:11 (MV4:11): >2

Structure (SMILES): CCn1cc(-c2cc(Cn3ccnc3)cc3c2CCN([C@H](c2cc(OC)ccn2)C2CC2)C3=O)c(C(F)(F)F)n1 [Compound 40, (S)-7-((1H-Imidazol-1-yl)methyl)-2-(cyclopropyl(4-methoxypyridin-2-yl)methyl)-5-(1-ethyl-3-(trifluoromethyl)-1H-pyrazol-4-yl)-3,4-dihydroisoquinolin-1(2H)-one]
- tolerability / clinical signs [2]: behaved normally during the study and showed no adverse effects

Source: paper PMC10081510 (Journal of medicinal chemistry, 2022)
